Ends that are not written are not given here.
Tests used:
[1] = tested on: freely-feeding rats; conditions: central administration, 4 hour time period; cited from earlier work
[2] = tested on: rat; assay: Rat sleep/EEG studies; assay type: in vivo; conditions: central administration at the onset of the normal sleep period
From the text: Therefore antagonists of its receptor may be useful in the treatment of sleep disorders including insomnia.

orexin-A: peptide ligand for the orexin-1 receptor, an agonist of the orexin receptors; amino acid sequence printed in b97-b99 (QPLPDCCRQKTCSCRLYELLHGAGNHAAGILTL; ends and bridges not checked; cysteine pairing not given here; UniProt O43612 34-66, looked up)
increase in food intake over control rats receiving vehicle [1]: approximately four-fold | effect on arousal (sleep/EEG) [2]: dose-related increase in arousal

Reference: patent US20060040937A1, “N-aroyl cyclic amines as orexin receptor antagonists” (Glaxo Group Limited, priority 2002, published 2006)
